Source: ChEMBL document CHEMBL5107949, “Design, synthesis, and antibacterial activity of N-(trifluoromethyl)phenyl substituted pyrazole derivatives” (RSC Med Chem, 2021)
Values after ≈ are worked out from the molar mass of the structure shown. Active and inactive are the calls of the source. The calls are words filed in the database; no cut-off is given here.

Tests used:
[1] = test system: Staphylococcus aureus; experiment: Inhibition of DNA synthesis in Staphylococcus aureus ATCC 29213 at 0.25 times MIC preincubated for 30 mins followed by [3H]-thymidine and measured after 30 mins by [3H]-thymidine incorporation based beta scintillation counter analysis; format: functional; conditions: time 60 min; 1 h
[2] = test system: Staphylococcus aureus; experiment: Antibacterial activity against antibiotic susceptible Staphylococcus aureus ATCC 25923 assessed as inhibition of bacterial growth by CLSI protocol based broth microdilution method; format: functional
[3] = test system: Staphylococcus aureus; experiment: Antibacterial activity against antibiotic resistant Staphylococcus aureus ATCC 33592 assessed as inhibition of bacterial growth by CLSI protocol based broth microdilution method; format: functional
[4] = test system: Staphylococcus aureus; experiment: Antibacterial activity against antibiotic resistant Staphylococcus aureus BAA-2312 assessed as inhibition of bacterial growth by CLSI protocol based broth microdilution method; format: functional
[5] = test system: Staphylococcus aureus; experiment: Antibacterial activity against antibiotic resistant Staphylococcus aureus ATCC 700699 assessed as inhibition of bacterial growth by CLSI protocol based broth microdilution method; format: functional
[6] = test system: Staphylococcus epidermidis; experiment: Antibacterial activity against antibiotic resistant Staphylococcus epidermidis ATCC 700296 assessed as inhibition of bacterial growth by CLSI protocol based broth microdilution method; format: functional
[7] = test system: Bacillus subtilis; experiment: Antibacterial activity against antibiotic resistant Bacillus subtilis ATCC 6623 assessed as inhibition of bacterial growth by CLSI protocol based broth microdilution method; format: functional
[8] = test system: Enterococcus faecium; experiment: Antibacterial activity against vancomycin resistant Enterococcus faecium ATCC 700221 assessed as inhibition of bacterial growth by CLSI protocol based broth microdilution method; format: functional
[9] = Cytotoxicity against human HEK293 cells reduction in cell viability incubated for 24 hrs by resazurin cell viability assay; format: toxicity, cell-based
[10] = test system: Enterococcus faecalis; experiment: Inhibition of biofilm formation in Enterococcus faecalis ATCC 29212 at 12.5 ug/ml incubated for 24 hrs by Calgary biofilm device assay; format: functional; conditions: dose 12.5 µg/ml
[11] = test system: Enterococcus faecalis; experiment: Anti-biofilm activity against Enterococcus faecalis ATCC 29212 assessed as biofilm eradication at 3.125 to 12.5 ug/ml incubated for 24 hrs by Calgary biofilm device assay; format: functional, organism-based; conditions: dose 3.125-12.5 µg/ml
[12] = test system: Enterococcus faecalis; experiment: Inhibition of biofilm formation in Enterococcus faecalis ATCC 29212 at 6.25 ug/ml incubated for 24 hrs by Calgary biofilm device assay; format: functional; conditions: dose 6.25 µg/ml
[13] = test system: Staphylococcus aureus; experiment: Inhibition of biofilm formation in Staphylococcus aureus ATCC 25923 at 3.125 to 12.5 ug/ml incubated for 24 hrs by Calgary biofilm device assay; format: functional, organism-based; conditions: dose 3.125-12.5 µg/ml, DDE = dose-dependent effect
[14] = test system: Enterococcus faecalis; experiment: Anti-biofilm activity against Enterococcus faecalis ATCC 29212 assessed as eradication of biofilm formation incubated for 24 hrs by Calgary biofilm device assay; format: functional
[15] = test system: Staphylococcus aureus; experiment: Anti-biofilm activity against Staphylococcus aureus ATCC 25923 assessed as eradication of biofilm formation incubated for 24 hrs by Calgary biofilm device assay; format: functional; conditions: Staphylococcus aureus, ATCC 25923
[16] = test system: Staphylococcus aureus; experiment: Bactericidal activity against Staphylococcus aureus ATCC 700699 assessed as bacteria elimination at 4 times MIC and measured after 6 hrs by time-kill assay; format: functional
[17] = test system: Staphylococcus aureus; experiment: Bactericidal activity against Staphylococcus aureus ATCC 700699 persisters assessed as log reduction in colony forming unit at 16 times MIC after 4 hrs by colony counting method; format: functional
[18] = test system: Staphylococcus aureus; experiment: Bactericidal activity against Staphylococcus aureus ATCC 700699 persisters assessed as log reduction in colony forming unit at 16 times MIC measured for 4 hrs by time kill assay; format: functional
[19] = test system: Staphylococcus aureus; experiment: Bactericidal activity against Staphylococcus aureus ATCC 700699 persisters assessed as log reduction in colony forming unit at 32 times MIC measured for 4 hrs by time kill assay; format: functional
[20] = test system: Enterococcus faecalis; experiment: Antibacterial activity against Enterococcus faecalis clinical isolate 1088051 assessed as inhibition of bacterial growth by CLSI protocol based broth microdilution method; format: functional
[21] = test system: Enterococcus faecalis; experiment: Antibacterial activity against Enterococcus faecalis clinical isolate 1091720 assessed as inhibition of bacterial growth by CLSI protocol based broth microdilution method; format: functional
[22] = test system: Enterococcus faecalis; experiment: Antibacterial activity against Enterococcus faecalis clinical isolate 1094112 assessed as inhibition of bacterial growth by CLSI protocol based broth microdilution method; format: functional
[23] = test system: Enterococcus faecalis; experiment: Antibacterial activity against Enterococcus faecalis clinical isolate 1100440 assessed as inhibition of bacterial growth by CLSI protocol based broth microdilution method; format: functional
[24] = test system: Enterococcus faecium; experiment: Antibacterial activity against Enterococcus faecium clinical isolate 1089544 assessed as inhibition of bacterial growth by CLSI protocol based broth microdilution method; format: functional
[25] = test system: Enterococcus faecium; experiment: Antibacterial activity against Enterococcus faecium clinical isolate 1091282 assessed as inhibition of bacterial growth by CLSI protocol based broth microdilution method; format: functional
[26] = test system: Staphylococcus aureus; experiment: Antibacterial activity against Staphylococcus aureus clinical isolate 1088060 assessed as inhibition of bacterial growth by CLSI protocol based broth microdilution method; format: functional
[27] = test system: Staphylococcus aureus; experiment: Antibacterial activity against Staphylococcus aureus clinical isolate 1088064 assessed as inhibition of bacterial growth by CLSI protocol based broth microdilution method; format: functional
[28] = test system: Staphylococcus aureus; experiment: Antibacterial activity against Staphylococcus aureus clinical isolate 1088888 assessed as inhibition of bacterial growth by CLSI protocol based broth microdilution method; format: functional
[29] = test system: Staphylococcus aureus; experiment: Antibacterial activity against Staphylococcus aureus clinical isolate 1089106 assessed as inhibition of bacterial growth by CLSI protocol based broth microdilution method; format: functional
[30] = test system: Staphylococcus aureus; experiment: Antibacterial activity against Staphylococcus aureus ATCC 29213 assessed as inhibition of bacterial growth by CLSI protocol based broth microdilution method; format: functional
[31] = test system: Staphylococcus aureus; experiment: Inhibition of DNA synthesis in Staphylococcus aureus ATCC 29213 at 1 times MIC preincubated for 30 mins followed by [3H]-thymidine and measured after 30 mins by [3H]-thymidine incorporation based beta scintillation counter analysis; format: functional; conditions: time 60 min; 1 h
[32] = test system: Staphylococcus aureus; experiment: Inhibition of RNA synthesis in Staphylococcus aureus ATCC 29213 at 0.25 times MIC preincubated for 30 mins followed by [3H]-uridine and measured after 30 mins by [3H]-uridine incorporation based beta scintillation counter analysis; format: functional; conditions: time 60 min; 1 h
[33] = test system: Staphylococcus aureus; experiment: Inhibition of RNA synthesis in Staphylococcus aureus ATCC 29213 at 0.5 times MIC preincubated for 30 mins followed by [3H]-uridine and measured after 30 mins by [3H]-uridine incorporation based beta scintillation counter analysis; format: functional; conditions: time 60 min; 1 h
[34] = test system: Staphylococcus aureus; experiment: Inhibition of RNA synthesis in Staphylococcus aureus ATCC 29213 at MIC preincubated for 30 mins followed by [3H]-uridine and measured after 30 mins by [3H]-uridine incorporation based beta scintillation counter analysis; format: functional; conditions: time 60 min; 1 h
[35] = test system: Staphylococcus aureus; experiment: Inhibition of protein synthesis in Staphylococcus aureus ATCC 29213 at 0.5 times MIC preincubated for 30 mins followed by [3H]-leucine and measured after 40 mins by [3H]-leucine incorporation based beta scintillation counter analysis; format: functional; conditions: time 70.0 min
[36] = test system: Staphylococcus aureus; experiment: Inhibition of lipid synthesis in Staphylococcus aureus ATCC 29213 at 0.25 times MIC preincubated for 30 mins followed by [3H]-glycerol and measured after 50 mins by [3H]-glycerol incorporation based beta scintillation counter analysis; format: functional; conditions: time 80 min; 1.333 h
[37] = test system: Enterococcus faecalis; experiment: Anti-biofilm activity against Enterococcus faecalis ATCC 29212 assessed as minimum bactericidal concentration incubated for 24 hrs by Calgary biofilm device assay; conditions: ATCC 29212, 24 h

With `O=C(O)c1ccc(-c2nn(-c3ccc(C(F)(F)F)cc3)cc2CNc2ccc(Br)c(C(F)(F)F)c2)cc1` the “inhibition (INH)” value [1] was 44%, the MIC [2] was 0.78 µg/mL (≈ 1.33 µM) and the MIC [3] was 0.78 µg/mL (≈ 1.33 µM). For the same molecule, the MIC [4] was 1.56 µg/mL (≈ 2.67 µM), the MIC [5] was 0.78 µg/mL (≈ 1.33 µM) and the MIC [6] was 1.56 µg/mL (≈ 2.67 µM). For the same molecule, the MIC [7] was 0.39 µg/mL (≈ 0.667 µM), the MIC [8] was 0.78 µg/mL (≈ 1.33 µM) and the IC50 at 24 h [9] was > 12 µg/mL. The inhibition [10] was “Active”, the Activity [11] was “Active” and the inhibition [12] was “Active”. For the same molecule, the inhibition [13] was “Dde”, the MBEC [14] was 6.25 µg/mL and the MBEC [15] was 6.25 µg/mL. The Activity [16] was >99.9%, the “log(activity)” value [17] was >2 and the “log(activity)” value [18] was 3. For the same molecule, the “log(activity)” value [19] was 5, the MIC [20] was 4 µg/mL (≈ 6.85 µM) and the MIC [21] was 8 µg/mL (≈ 13.7 µM). For the same molecule, the MIC [22] was 8 µg/mL (≈ 13.7 µM), the MIC [23] was 8 µg/mL (≈ 13.7 µM) and the MIC [24] was 8 µg/mL (≈ 13.7 µM). It also gave an MIC [25] of 8 µg/mL (≈ 13.7 µM), an MIC [26] of 4 µg/mL (≈ 6.85 µM) and an MIC [27] of 4 µg/mL (≈ 6.85 µM). The MIC [28] was 8 µg/mL (≈ 13.7 µM), the MIC [29] was 4 µg/mL (≈ 6.85 µM) and the MIC [30] was 1 µg/mL (≈ 1.71 µM). For the same molecule, the “inhibition (INH)” value [31] was 76%, the “inhibition (INH)” value [32] was 14.1% and the “inhibition (INH)” value [33] was 38.1%. For the same molecule, the “inhibition (INH)” value [34] was 75.5%, the inhibition [35] was 53.3% and the “inhibition (INH)” value [36] was 55.4%. The MBC [37] was 6.25 µg/mL (≈ 10.7 µM).
